Source: PubChem BioAssay AID256 (DTP/NCI, 2004)
Values joined by “and” are separate entries in the source; they are usually repeats but may differ in a detail not shown here. Identical values can stand only once. Toxic doses and inconclusive results are not listed. The calls were made as follows: active = survival T/C of 150% or more; inactive = T/C below 125% in these data.

Test system: CD2F1 mice, L1210 leukemia ip, survival T/C
Assay: NCI In Vivo Anticancer Drug Screen. Data for tumor model L1210 Leukemia (intraperitoneal) in CD2F1 (CDF1) mice
Conditions: higher = longer survival
Method in brief: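 Read-out first: treated-group measurement over vehicle-control measurement, expressed as a ratio. Animals bore a transplanted tumor line and were dosed with compound or vehicle.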

[1] = endpoint: mean survival time, dose: 100.0 mg/kg/injection, schedule: Q01DX009 (ip), vehicle: saline with Tween-80
[2] = endpoint: mean survival time, dose: 100.0 mg/kg/injection, schedule: Q04DX003 (ip), vehicle: saline with Tween-80
[3] = endpoint: mean survival time, dose: 200.0 mg/kg/injection, schedule: Q01DX009 (ip), vehicle: saline with Tween-80
[4] = endpoint: mean survival time, dose: 200.0 mg/kg/injection, schedule: Q04DX003 (ip), vehicle: saline with Tween-80
[5] = endpoint: mean survival time, dose: 400.0 mg/kg/injection, schedule: Q01DX009 (ip), vehicle: saline with Tween-80
[6] = endpoint: mean survival time, dose: 400.0 mg/kg/injection, schedule: Q04DX003 (ip), vehicle: saline with Tween-80
[7] = endpoint: mean survival time, dose: 12.5 mg/kg/injection, schedule: Q01DX009 (ip), vehicle: saline
[8] = endpoint: mean survival time, dose: 25.0 mg/kg/injection, schedule: Q01DX009 (ip), vehicle: saline
[9] = endpoint: mean survival time, dose: 100.0 mg/kg/injection, schedule: Q01DX001 (ip), vehicle: saline
[10] = endpoint: mean survival time, dose: 100.0 mg/kg/injection, schedule: Q04DX002 (ip), vehicle: saline with Tween-80
[11] = endpoint: mean survival time, dose: 200.0 mg/kg/injection, schedule: Q04DX002 (ip), vehicle: saline with Tween-80
[12] = endpoint: mean survival time, dose: 400.0 mg/kg/injection, schedule: Q04DX002 (ip), vehicle: saline with Tween-80
[13] = endpoint: mean survival time, dose: 100.0 mg/kg/injection, schedule: Q01DX009 (ip), vehicle: saline
[14] = endpoint: mean survival time, dose: 100.0 mg/kg/injection, schedule: Q01DX001 (ip), vehicle: saline with Tween-80

Measured: T/C

NCC1CCC(C(=O)O)CC1 (configuration not stated)
inactive: endpoint: median survival time, dose: 12.5 mg/kg/injection, schedule: Q01DX009 (ip), vehicle: saline with Tween-80 101 % of control | endpoint: median survival time, dose: 25.0 mg/kg/injection, schedule: Q01DX009 (ip), vehicle: saline with Tween-80 101 % of control | endpoint: median survival time, dose: 50.0 mg/kg/injection, schedule: Q01DX005 (ip), vehicle: saline with Tween-80 110 % of control | endpoint: median survival time, dose: 50.0 mg/kg/injection, schedule: Q01DX009 (ip), vehicle: saline with Tween-80 100 % of control | endpoint: median survival time, dose: 100.0 mg/kg/injection, schedule: Q01DX005 (ip), vehicle: saline with Tween-80 104 % of control | endpoint: median survival time, dose: 100.0 mg/kg/injection, schedule: Q01DX009 (ip), vehicle: saline with Tween-80 101 % of control | endpoint: median survival time, dose: 200.0 mg/kg/injection, schedule: Q01DX005 (ip), vehicle: saline with Tween-80 97 % of control | endpoint: median survival time, dose: 200.0 mg/kg/injection, schedule: Q01DX009 (ip), vehicle: saline with Tween-80 100 % of control | endpoint: median survival time, dose: 400.0 mg/kg/injection, schedule: Q01DX005 (ip), vehicle: saline with Tween-80 105 % of control | endpoint: median survival time, dose: 400.0 mg/kg/injection, schedule: Q01DX009 (ip), vehicle: saline with Tween-80 100 % of control | endpoint: median survival time, dose: 800.0 mg/kg/injection, schedule: Q01DX005 (ip), vehicle: saline with Tween-80 97 % of control

O=C(CCl)C(c1ccc([N+](=O)[O-])cc1)c1ccc([N+](=O)[O-])cc1
inactive: [1] 98 % of control | [2] 100 % of control | [3] 98 % of control | [4] 103 % of control | [5] 98 % of control | [6] 108 % of control

CCCCCNC(=O)Nc1cccc(Cl)c1C
inactive: [1] 94 % of control | [2] 88 % of control | [3] 92 % of control | [4] 92 % of control | [6] 92 % of control

CC1=C(O)C(=O)[C@@H]2O[C@@H]2C1=O
inactive: endpoint: mean survival time, dose: 0.78 mg/kg/injection, schedule: Q01DX009 (ip), vehicle: saline 98 % of control and 102 % of control | endpoint: mean survival time, dose: 1.56 mg/kg/injection, schedule: Q01DX009 (ip), vehicle: saline 101 % of control and 102 % of control | endpoint: mean survival time, dose: 3.12 mg/kg/injection, schedule: Q01DX009 (ip), vehicle: saline 96 % of control and 107 % of control | endpoint: mean survival time, dose: 6.25 mg/kg/injection, schedule: Q01DX009 (ip), vehicle: saline 98 % of control and 108 % of control | [7] 108 % of control | [8] 87 % of control

COc1ccc2ccccc2c1NC(C)=O
inactive: [9] 102 % of control | endpoint: mean survival time, dose: 200.0 mg/kg/injection, schedule: Q01DX001 (ip), vehicle: saline 101 % of control | endpoint: mean survival time, dose: 400.0 mg/kg/injection, schedule: Q01DX001 (ip), vehicle: saline 101 % of control

CCCCN(CCCC)C1=C(Cl)C(=O)c2ccccc2C1=O
inactive: endpoint: mean survival time, dose: 25.0 mg/kg/injection, schedule: Q04DX003 (ip), vehicle: saline with Tween-80 98 % of control | endpoint: mean survival time, dose: 50.0 mg/kg/injection, schedule: Q04DX003 (ip), vehicle: saline with Tween-80 98 % of control | [2] 91 % of control

CC1(C)CC(O)C2(C)CCC3(C)C(=CCC4C5(C)CCC(O)C(C)(CO)C5CCC43C)C2C1 (configuration not stated) (tested in a mixture with another compound)
inactive: [10] 102 % of control | [11] 98 % of control | [12] 107 % of control

O=c1[nH]cccc1[N+](=O)[O-]
inactive: [2] 106 % of control | [4] 106 % of control | [6] 101 % of control

CCCCCCCCCCCCOP(=S)(OCC)OCC
inactive: [10] 98 % of control | [11] 95 % of control | [12] 91 % of control

CN1NC(=O)C2CCCC1O2 (configuration not stated)
inactive: [7] 106 % of control | [8] 102 % of control | endpoint: mean survival time, dose: 50.0 mg/kg/injection, schedule: Q01DX009 (ip), vehicle: saline 105 % of control | [13] 111 % of control

NC(CSS(=O)(=O)O)=NCCc1cccs1
inactive: endpoint: mean survival time, dose: 12.5 mg/kg/injection, schedule: Q04DX002 (ip), vehicle: saline with Tween-80 97 % of control | endpoint: mean survival time, dose: 25.0 mg/kg/injection, schedule: Q04DX002 (ip), vehicle: saline with Tween-80 105 % of control

CC/C(C)=N\O
inactive: [13] 97 % of control | endpoint: mean survival time, dose: 200.0 mg/kg/injection, schedule: Q01DX009 (ip), vehicle: saline 111 % of control | endpoint: mean survival time, dose: 400.0 mg/kg/injection, schedule: Q01DX009 (ip), vehicle: saline 97 % of control

CCCCN1CCCCC1C(=O)Nc1c(C)cccc1C (configuration not stated)
inactive: endpoint: mean survival time, dose: 9.5 mg/kg/injection, schedule: Q01DX001 (ip), vehicle: saline 102 % of control | endpoint: mean survival time, dose: 19.0 mg/kg/injection, schedule: Q01DX001 (ip), vehicle: saline 102 % of control | endpoint: mean survival time, dose: 38.0 mg/kg/injection, schedule: Q01DX001 (ip), vehicle: saline 100 % of control

N#CC(C#N)=c1ccc(=C(C#N)C#N)cc1
inactive: [2] 98 % of control

Nc1ccc(N(S(=O)(=O)c2ccccc2)S(=O)(=O)c2ccccc2)c(Cl)c1
inactive: [14] 96 % of control | endpoint: mean survival time, dose: 200.0 mg/kg/injection, schedule: Q01DX001 (ip), vehicle: saline with Tween-80 98 % of control | endpoint: mean survival time, dose: 400.0 mg/kg/injection, schedule: Q01DX001 (ip), vehicle: saline with Tween-80 96 % of control

CCN1CCS/C1=C\C=C\C1=[N+](CC)CCS1
inactive: endpoint: mean survival time, dose: 1.25 mg/kg/injection, schedule: Q01DX001 (ip), vehicle: other 98 % of control | endpoint: mean survival time, dose: 2.5 mg/kg/injection, schedule: Q01DX001 (ip), vehicle: other 101 % of control

C#CCOCCBr
inactive: endpoint: mean survival time, dose: 50.0 mg/kg/injection, schedule: Q01DX009 (ip), vehicle: acetone 94 % of control | endpoint: mean survival time, dose: 100.0 mg/kg/injection, schedule: Q01DX009 (ip), vehicle: acetone 100 % of control | endpoint: mean survival time, dose: 200.0 mg/kg/injection, schedule: Q01DX009 (ip), vehicle: acetone 103 % of control

O=C1OC(=O)C2CC(Br)C(Br)CC12 (configuration not stated)
inactive: [1] 95 % of control | [3] 98 % of control | [5] 91 % of control

CC([NH-])C([NH-])O.[Cl][Pt+2][Cl] (configuration not stated)
inactive: endpoint: mean survival time, dose: 6.25 mg/kg/injection, schedule: Q04DX003 (ip), vehicle: saline with Tween-80 115 % of control

Oc1ccccc1/C=N/c1nc(-c2ccccc2)cs1.Oc1ccccc1/C=N/c1nc(-c2ccccc2)cs1.[Zn]
inactive: endpoint: mean survival time, dose: 25.0 mg/kg/injection, schedule: Q01DX001 (ip), vehicle: saline 103 % of control | endpoint: mean survival time, dose: 50.0 mg/kg/injection, schedule: Q01DX001 (ip), vehicle: saline 100 % of control | [14] 104 % of control | [9] 91 % of control
